# From ChEMBL document CHEMBL1150846, “Thorectandrols A and B, new cytotoxic sesterterpenes from the marine sponge Thorectandra species” (J Nat Prod, 2001)
# How the values were obtained:
# MCF7 = assay: Cytotoxicity against human MCF7 cells after 2 days by XTT assay; assay type: functional, cell-based; conditions: MCF7, 48 h
# Malme-3M = assay: Cytotoxicity against human MALME-3M cells after 2 days by XTT assay; assay type: functional, cell-based; conditions: 48 h
structure (smiles),measurement,setting,value
C=C1CCC[C@@H]2[C@@](C)(CC/C(C)=C/C[C@@H](O)C3=CC(=O)OC3O)[C@@H](C)CC[C@@]12C (some centres not stated) [PALAUOLOL],IC50,MCF7,14.2 µg/mL
same,IC50,Malme-3M,0.46 µg/mL
